In patent publication US8546390B2, “6-(pyrrolopyridinyl) pyrimidin-2-ylamine derivatives and the use thereof for the treatment of cancer and AIDS” (Merck Patent GmbH, priority 2008, dated 2013):
Read-outs that look alike come from different tables or passages of the source.

How the values were obtained:
PDK1 = biological target: T1, PDK1 (Homo sapiens, UniProt O15530); assay: Test for the inhibition of PDK1 (flashplate, 33P-ATP); type: biochemical
T1 construct: His6 (N)
T1 sequence (O15530 51-556): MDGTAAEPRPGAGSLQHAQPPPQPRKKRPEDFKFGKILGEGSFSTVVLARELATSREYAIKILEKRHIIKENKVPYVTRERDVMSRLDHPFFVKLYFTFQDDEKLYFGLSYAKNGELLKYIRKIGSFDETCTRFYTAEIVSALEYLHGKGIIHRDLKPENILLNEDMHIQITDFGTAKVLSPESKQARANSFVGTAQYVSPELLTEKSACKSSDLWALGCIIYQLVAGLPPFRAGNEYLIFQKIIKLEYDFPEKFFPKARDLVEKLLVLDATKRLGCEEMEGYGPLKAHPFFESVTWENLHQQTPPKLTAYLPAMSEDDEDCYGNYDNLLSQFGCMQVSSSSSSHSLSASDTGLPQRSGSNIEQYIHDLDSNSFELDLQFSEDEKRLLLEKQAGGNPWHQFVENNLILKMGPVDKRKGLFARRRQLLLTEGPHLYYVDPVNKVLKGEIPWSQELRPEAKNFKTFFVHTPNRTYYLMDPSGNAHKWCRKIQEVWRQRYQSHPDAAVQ
Method: NO.: 1, (400 Nm), 4 μm ATP (with 0.2 μCi of ^33P-ATP/well) and the test substance in 50 μl of conventional experimental solution per well are incubated at 30° C. for 60 min. The test substances are employed in corresponding concentrations (if desired in a dilution series). The control is carried out without test substance. The reaction is stopped using standard methods and washed. The activity of the kinase is measured via the incorporated radioactivity in top count. In order to determine the non-specific kinase reaction (blank value), the experimental batches are carried out in the presence of 100 nM staurosporin.
The radioactivity (decompositions per minute) of the blank value (no use of test substance in the presence of staurosporin) is subtracted from all other radioactivity values. The controls (kinase activity without test substance) are set equal to 100 percent and all other radioactivity values (after subtracting the blank value) are expressed set in relation thereto (for example in % of the control).

A2780 (ovary) = assay: Inhibition of the proliferation/vitality of tumour cells (Alamar Blue test); type: cell-based; conditions: Homo sapiens, 96 h, A2780 ovary cell line, 4 days cultivation with test substance
Method: In the present experiment description, the inhibition of tumour cell proliferation/tumour cell vitality by active ingredients is described. The cells are sown in a suitable cell density in microtitre plates (96-well format) and the test substances are added in the form of a concentration series. After four further days of cultivation in serum-containing medium, the tumour cell proliferation/tumour cell vitality can be determined by means of an Alamar Blue test system.
The cells are cultivated in medium. At intervals of several days, the cells are detached from the culture dishes with the aid of trypsin solution and sown in suitable dilution in fresh medium. The cells are cultivated at 37° Celsius and 10% CO2.
A defined number of cells (for example 2000 cells) per culture/well in a volume of 180 μl of culture medium are sown in microtitre plates (96 well cell-culture plates) using a multichannel pipette. The cells are subsequently cultivated in a CO2 incubator (37° C. and 10% CO2).
The test substances are dissolved, for example, in DMSO and subsequently employed in corresponding concentration (if desired in a dilution series) in the cell culture medium. The dilution steps can be adapted depending on the efficiency of the active ingredients and the desired spread of the concentrations. Cell culture medium is added to the test substances in corresponding concentrations. The addition of the test substances to the cells can take place on the same day as the sowing of the cells. To this end, in each case 20 μl of substance solution from the predilution plate are added to the cultures/wells. The cells are cultivated for a further 4 days at 37° Celsius and 10% CO2.
In each case, 20 μl of Alamar Blue reagent are added per well, and the microtitre plates are incubated, for example, for a further seven hours in a CO2 incubator (at 37° C. and 10% CO2). The plates are measured in a reader with a fluorescence filter at a wavelength of 540 nm. The plates can be shaken gently immediately before the measurement.
The absorbance value of the medium control (no cells and test substances used) is subtracted from all other absorbance values. The controls (cells without test substance) are set equal to 100 percent, and all other absorbance values are set in relation thereto (for example in % of control): Calculation:
IC50 values (50% inhibition) are determined with the aid of statistics programs, such as, for example, RS1.

[1] = His6-PDK1(Δ1-50) 3.4 nM, 30° C., 60 min, read-out: IC50 PDK1

IC50 (PDK1; [1]) [nM]	IC50 (A2780 (ovary)) [nM]	Compound	further results
–	10 to 1000	CCCCc1cc(-c2c[nH]c3ncccc23)nc(N)n1 [Compound A1, 4-butyl-6-(1H-pyrrolo[2,3-b]pyridin-3-yl)pyrimidin-2-ylamine]	–
–	10 to 1000	Nc1nc(-c2ccccc2)cc(-c2c[nH]c3ncccc23)n1 [Compound A2, 4-Phenyl-6-(1H-pyrrolo[2,3-b]pyridin-3-yl)pyrimidin-2-ylamine]	–
–	10 to 1000	CCCc1cc(-c2c[nH]c3ncccc23)nc(N)n1 [Compound A3, 4-Propyl-6-(1H-pyrrolo[2,3-b]pyridin-3-yl)pyrimidin-2-ylamine]	–
–	10 to 1000	CCc1cc(-c2c[nH]c3ncccc23)nc(N)n1 [Compound A5, 4-ethyl-6-(1H-pyrrolo[2,3-b]pyridin-3-yl)pyrimidin-2-ylamine]	–
–	1000 to 10000	CCCCCc1cc(-c2c[nH]c3ncccc23)nc(N)n1 [Compound A6, 4-Pentyl-6-(1H-pyrrolo[2,3-b]pyridin-3-yl)pyrimidin-2-ylamine]	–
–	1000 to 10000	CCCC1CCC(c2cc(-c3c[nH]c4ncccc34)nc(N)n2)CC1 (stereo not shown) [Compound A8]	–
10 to 1000	–	NCCCc1cc(-c2c[nH]c3ncccc23)nc(N)n1 [Compound A16, 4-(3-Aminopropyl)-6-(1H-pyrrolo[2,3-b]pyridin-3-yl)pyrimidin-2-ylamine]	–
10 to 1000	–	CCc1cc(-c2c[nH]c3ncc(Br)cc23)nc(N)n1 [Compound A32]	–
10 to 1000	–	NCCCc1cc(-c2c[nH]c3ncc(-c4ccco4)cc23)nc(N)n1 [Compound A43, 4-(3-Aminopropyl)-6-(5-furan-2-yl-1H-pyrrolo[2,3-b]pyridin-3-yl)pyrimidin-2-ylamine]	–
10 to 1000	–	CCc1cc(-c2c[nH]c3ncc(-c4cnn(C)c4)cc23)nc(N)n1 [Compound A45, 4-ethyl-6-[5-(1-methyl-1H-pyrazol-4-yl)-1H-pyrrolo[2,3-b]pyridin-3-yl]pyrimidin-2-ylamine]	–
10 to 1000	–	CCc1cc(-c2c[nH]c3ncc(-c4ccc(N)nc4)cc23)nc(N)n1 [Compound A48, 4-[5-(6-Aminopyridin-3-yl)-1H-pyrrolo-[2,3-b]pyridin-3-yl]-6-ethylpyrimidin-2-ylamine]	–
10 to 1000	–	CCc1cc(-c2c[nH]c3ncc(-c4ccco4)cc23)nc(N)n1 [Compound A49, 4-Ethyl-6-(5-furan-2-yl-1H-pyrrolo[2,3-b]pyridin-3-yl)pyrimidin-2-ylamine]	–
10 to 1000	–	CCc1cc(-c2c[nH]c3ncc(-c4cnn(CCOC)c4)cc23)nc(N)n1 [Compound A56, 4-Ethyl-6-{5-[1-(2-methoxyethyl)-1H-pyrazol-4-yl]-1H-pyrrolo[2,3-b]pyridin-3-yl}pyrimidin-2-ylamine]	–
–	–	CCc1cc(-c2c[nH]c3ncc(-c4cn[nH]c4)cc23)nc(N)n1 [Compound A60, 4-Ethyl-6-[5-(1H-pyrazol-4-yl)-1H-pyrrolo[2,3-b]pyridin-3-yl]pyrimidin-2-ylamine]	IC50 (PDK1): 10 to 1000 nM
10 to 1000	–	CCc1cc(-c2c[nH]c3ncc(-c4cnn(CC(C)C)c4)cc23)nc(N)n1 [Compound A66, 4-Ethyl-6-[5-(1-isobulyl-1H-pyrazol-4-yl)-1H-pyrrolo[2,3-b]pyridin-3-yl]-pyrimidin-2-ylamine]	–

Compound	IC50 (PDK1; [1]) [nM]	IC50 (A2780 (ovary)) [nM]	further results
4-(3-aminopropyl)-6-[5-(1-methyl-1H-pyrazol-4-yl)-1H-pyrrolo[2,3-b]pyridin-3-yl]pyrimidin-2-ylamine [Compound A42]	10 to 1000	–	–
